# Reference: the supplement of paper PMC10307832
# Assays:
# Assay in all cases: relative viability (nuclei count vs DMSO), 5 days (fraction); higher = more cells survive
# Omipalisib = compound: COc1ncc(-c2ccc3nccc(-c4ccnnc4)c3c2)cc1NS(=O)(=O)c1ccc(F)cc1F [Omipalisib]
# Summary of the method: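 After an overnight hold at 37 °C, lung cancer cell lines in 1536-well plates were pinned with five library-drug doses (not always all listed), each √10 from the next, on vehicle-anchored plates. The cells stayed 5 days without fresh medium, then a one-step fix, permeabilisation and Hoechst stain preceded 4× imaging and MetaXpress nuclear counts. A plate passed only with control CV under 25% and at least one doubling. Viability is the median, over plates, of treated-well nuclei relative to vehicle-well nuclei.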
# Omipalisib + Bortezomib = compound: COc1ncc(-c2ccc3nccc(-c4ccnnc4)c3c2)cc1NS(=O)(=O)c1ccc(F)cc1F [Omipalisib] + CC(C)C[C@H](NC(=O)[C@H](Cc1ccccc1)NC(=O)c1cnccn1)B(O)O [Bortezomib] (partner 0.002 µM)
# Summary of the method: (§1)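 A single step with final 0.05% Triton X-100, 1% formaldehyde and 1 ug/ml Hoechst fixed the cells and stained nuclei 5 days after treatment. Lung cancer cell lines in 1536-well plates had been treated by pin tool the day after seeding with one drug alone or a fixed anchor-drug dose plus five library-drug doses (not always all listed) in √10 steps, and nuclei were counted on 4× images. Relative viability is the ratio of nuclei in treated wells to nuclei in vehicle wells, taken as the median of duplicate plates.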
# Omipalisib + Navitoclax = compound: COc1ncc(-c2ccc3nccc(-c4ccnnc4)c3c2)cc1NS(=O)(=O)c1ccc(F)cc1F [Omipalisib] + CC1(C)CCC(c2ccc(Cl)cc2)=C(CN2CCN(c3ccc(C(=O)NS(=O)(=O)c4ccc(N[C@H](CCN5CCOCC5)CSc5ccccc5)c(S(=O)(=O)C(F)(F)F)c4)cc3)CC2)C1 [Navitoclax] (partner 0.5 µM)
# Summary of the method: as §1
# Omipalisib + Foretinib = compound: COc1ncc(-c2ccc3nccc(-c4ccnnc4)c3c2)cc1NS(=O)(=O)c1ccc(F)cc1F [Omipalisib] + COc1cc2c(Oc3ccc(NC(=O)C4(C(=O)Nc5ccc(F)cc5)CC4)cc3F)ccnc2cc1OCCCN1CCOCC1 [Foretinib] (partner 0.25 µM)
# Summary of the method: as §1
# Omipalisib + Lapatinib = compound: COc1ncc(-c2ccc3nccc(-c4ccnnc4)c3c2)cc1NS(=O)(=O)c1ccc(F)cc1F [Omipalisib] + CS(=O)(=O)CCNCc1ccc(-c2ccc3ncnc(Nc4ccc(OCc5cccc(F)c5)c(Cl)c4)c3c2)o1 [Lapatinib] (partner 2 µM)
# Summary of the method: as §1
# Omipalisib + Pictilisib = compound: COc1ncc(-c2ccc3nccc(-c4ccnnc4)c3c2)cc1NS(=O)(=O)c1ccc(F)cc1F [Omipalisib] + CS(=O)(=O)N1CCN(Cc2cc3nc(-c4cccc5[nH]ncc45)nc(N4CCOCC4)c3s2)CC1 [Pictilisib] (partner 1 µM)
# Summary of the method: as §1
# Omipalisib + Crizotinib = compound: COc1ncc(-c2ccc3nccc(-c4ccnnc4)c3c2)cc1NS(=O)(=O)c1ccc(F)cc1F [Omipalisib] + C[C@@H](Oc1cc(-c2cnn(C3CCNCC3)c2)cnc1N)c1c(Cl)ccc(F)c1Cl [Crizotinib] (partner 1 µM)
# Summary of the method: as §1
# Omipalisib + Linsitinib = compound: COc1ncc(-c2ccc3nccc(-c4ccnnc4)c3c2)cc1NS(=O)(=O)c1ccc(F)cc1F [Omipalisib] + C[C@]1(O)C[C@@H](c2nc(-c3ccc4ccc(-c5ccccc5)nc4c3)c3c(N)nccn32)C1 [Linsitinib] (partner 1 µM)
# Summary of the method: as §1
# Omipalisib + Alpelisib = compound: COc1ncc(-c2ccc3nccc(-c4ccnnc4)c3c2)cc1NS(=O)(=O)c1ccc(F)cc1F [Omipalisib] + Cc1nc(NC(=O)N2CCC[C@H]2C(N)=O)sc1-c1ccnc(C(C)(C)C(F)(F)F)c1 [Alpelisib] (partner 2 µM)
# Summary of the method: as §1
# Omipalisib + Olaparib = compound: COc1ncc(-c2ccc3nccc(-c4ccnnc4)c3c2)cc1NS(=O)(=O)c1ccc(F)cc1F [Omipalisib] + O=C(c1cc(Cc2n[nH]c(=O)c3ccccc23)ccc1F)N1CCN(C(=O)C2CC2)CC1 [Olaparib] (partner 8 µM)
# Summary of the method: as §1
# Omipalisib + Luminespib = compound: COc1ncc(-c2ccc3nccc(-c4ccnnc4)c3c2)cc1NS(=O)(=O)c1ccc(F)cc1F [Omipalisib] + CCNC(=O)c1noc(-c2cc(C(C)C)c(O)cc2O)c1-c1ccc(CN2CCOCC2)cc1 [Luminespib] (partner 0.01 µM)
# Summary of the method: as §1
# Omipalisib + OSI-027 = compound: COc1ncc(-c2ccc3nccc(-c4ccnnc4)c3c2)cc1NS(=O)(=O)c1ccc(F)cc1F [Omipalisib] + COc1cccc2cc(-c3nc([C@H]4CC[C@H](C(=O)O)CC4)n4ncnc(N)c34)[nH]c12 [OSI-027] (partner 0.5 µM)
# Summary of the method: as §1
# Omipalisib + Dasatinib = compound: COc1ncc(-c2ccc3nccc(-c4ccnnc4)c3c2)cc1NS(=O)(=O)c1ccc(F)cc1F [Omipalisib] + Cc1nc(Nc2ncc(C(=O)Nc3c(C)cccc3Cl)s2)cc(N2CCN(CCO)CC2)n1 [Dasatinib] (partner 0.075 µM)
# Summary of the method: as §1
# Omipalisib + Phenformin = compound: COc1ncc(-c2ccc3nccc(-c4ccnnc4)c3c2)cc1NS(=O)(=O)c1ccc(F)cc1F [Omipalisib] + N=C(N)NC(=N)NCCc1ccccc1 [Phenformin] (partner 250 µM)
# Summary of the method: as §1
# Omipalisib + Pemetrexed = compound: COc1ncc(-c2ccc3nccc(-c4ccnnc4)c3c2)cc1NS(=O)(=O)c1ccc(F)cc1F [Omipalisib] + Nc1nc2[nH]cc(CCc3ccc(C(=O)N[C@@H](CCC(=O)O)C(=O)O)cc3)c2c(=O)[nH]1 [Pemetrexed] (partner 0.2 µM)
# Summary of the method: as §1
cell line,measurement,setting,value
NCI-H1299,relative viability,Omipalisib; 0.0003 µM,1.06
same,relative viability,Omipalisib; 0.003 µM,1.1
same,relative viability,Omipalisib; 0.03 µM,1.02
same,relative viability,Omipalisib + Bortezomib; first compound 0.0003 µM,1.03
same,relative viability,Omipalisib + Bortezomib; first compound 0.003 µM,1.08
same,relative viability,Omipalisib + Bortezomib; first compound 0.03 µM,1.12
same,relative viability,Omipalisib + Navitoclax; first compound 0.0003 µM,1.09
same,relative viability,Omipalisib + Navitoclax; first compound 0.003 µM,1.05
same,relative viability,Omipalisib + Navitoclax; first compound 0.03 µM,1.05
same,relative viability,Omipalisib + Foretinib; first compound 0.0003 µM,1.13
same,relative viability,Omipalisib + Foretinib; first compound 0.003 µM,1.17
same,relative viability,Omipalisib + Foretinib; first compound 0.03 µM,1.12
same,relative viability,Omipalisib + Lapatinib; first compound 0.0003 µM,1.01
same,relative viability,Omipalisib + Lapatinib; first compound 0.003 µM,0.994
same,relative viability,Omipalisib + Lapatinib; first compound 0.03 µM,1.02
same,relative viability,Omipalisib + Pictilisib; first compound 0.0003 µM,0.778
same,relative viability,Omipalisib + Pictilisib; first compound 0.003 µM,0.612
same,relative viability,Omipalisib + Pictilisib; first compound 0.03 µM,0.624
same,relative viability,Omipalisib + Crizotinib; first compound 0.0003 µM,0.986
same,relative viability,Omipalisib + Crizotinib; first compound 0.003 µM,1.03
same,relative viability,Omipalisib + Crizotinib; first compound 0.03 µM,0.967
same,relative viability,Omipalisib + Linsitinib; first compound 0.0003 µM,0.95
same,relative viability,Omipalisib + Linsitinib; first compound 0.003 µM,1.01
same,relative viability,Omipalisib + Linsitinib; first compound 0.03 µM,0.909
same,relative viability,Omipalisib + Alpelisib; first compound 0.0003 µM,1.12
same,relative viability,Omipalisib + Alpelisib; first compound 0.003 µM,1.13
same,relative viability,Omipalisib + Alpelisib; first compound 0.03 µM,1.06
same,relative viability,Omipalisib + Olaparib; first compound 0.0003 µM,1.05
same,relative viability,Omipalisib + Olaparib; first compound 0.003 µM,1.01
same,relative viability,Omipalisib + Olaparib; first compound 0.03 µM,0.902
NCI-H1563,relative viability,Omipalisib; 0.0003 µM,0.87
same,relative viability,Omipalisib; 0.003 µM,0.801
same,relative viability,Omipalisib; 0.03 µM,0.577
same,relative viability,Omipalisib + Bortezomib; first compound 0.0003 µM,0.756
same,relative viability,Omipalisib + Bortezomib; first compound 0.003 µM,0.667
same,relative viability,Omipalisib + Bortezomib; first compound 0.03 µM,0.7
same,relative viability,Omipalisib + Luminespib; first compound 0.0003 µM,0.557
same,relative viability,Omipalisib + Luminespib; first compound 0.003 µM,0.515
same,relative viability,Omipalisib + Luminespib; first compound 0.03 µM,0.445
same,relative viability,Omipalisib + Foretinib; first compound 0.0003 µM,0.841
same,relative viability,Omipalisib + Foretinib; first compound 0.003 µM,0.806
same,relative viability,Omipalisib + Foretinib; first compound 0.03 µM,0.585
same,relative viability,Omipalisib + OSI-027; first compound 0.0003 µM,0.759
same,relative viability,Omipalisib + OSI-027; first compound 0.003 µM,0.583
same,relative viability,Omipalisib + OSI-027; first compound 0.03 µM,0.602
same,relative viability,Omipalisib + Lapatinib; first compound 0.0003 µM,0.747
same,relative viability,Omipalisib + Lapatinib; first compound 0.003 µM,0.848
same,relative viability,Omipalisib + Lapatinib; first compound 0.03 µM,0.747
same,relative viability,Omipalisib + Pictilisib; first compound 0.0003 µM,0.575
same,relative viability,Omipalisib + Pictilisib; first compound 0.003 µM,0.67
same,relative viability,Omipalisib + Pictilisib; first compound 0.03 µM,0.694
same,relative viability,Omipalisib + Crizotinib; first compound 0.0003 µM,0.698
same,relative viability,Omipalisib + Crizotinib; first compound 0.003 µM,0.796
same,relative viability,Omipalisib + Crizotinib; first compound 0.03 µM,0.609
same,relative viability,Omipalisib + Linsitinib; first compound 0.0003 µM,0.844
same,relative viability,Omipalisib + Linsitinib; first compound 0.003 µM,0.992
same,relative viability,Omipalisib + Linsitinib; first compound 0.03 µM,0.77
same,relative viability,Omipalisib + Alpelisib; first compound 0.0003 µM,0.756
same,relative viability,Omipalisib + Alpelisib; first compound 0.003 µM,0.841
same,relative viability,Omipalisib + Alpelisib; first compound 0.03 µM,0.587
same,relative viability,Omipalisib + Dasatinib; first compound 0.0003 µM,0.484
same,relative viability,Omipalisib + Dasatinib; first compound 0.003 µM,0.442
same,relative viability,Omipalisib + Dasatinib; first compound 0.03 µM,0.354
same,relative viability,Omipalisib + Phenformin; first compound 0.0003 µM,0.639
same,relative viability,Omipalisib + Phenformin; first compound 0.003 µM,0.579
same,relative viability,Omipalisib + Phenformin; first compound 0.03 µM,0.535
same,relative viability,Omipalisib + Pemetrexed; first compound 0.0003 µM,0.714
same,relative viability,Omipalisib + Pemetrexed; first compound 0.003 µM,0.616
same,relative viability,Omipalisib + Pemetrexed; first compound 0.03 µM,0.462
